Results reported in patent publication US20090298797A1, “COMBINATION THERAPY FOR THE TREATMENT OF INFLUENZA” (priority 2008, published 2009).
Several values for one entry are separate records, joined by “and”; a condition that tells them apart may be missing. Identical values can stand only once.

What was measured:
[1] = test system: influenza A virus strain A/Vietnam/1194/04 (H5N1); set-up: species or system BALB/c mice; conditions: mouse, in vivo
influenza A/H2N2 virus = conditions: mouse, in vivo; cited from earlier work
[2] = test system: influenza A virus strain A/Vietnam/1194/04 (H5N1); set-up: species or system BALB/c mice; conditions: mouse, in vivo; remark: listed apart in the source
[3] = test system: IL-1, IL-6, IFN-γ, TNF-α, MIP-1, PGE2, leukotriene; test: ELISA of pro-inflammatory cytokines, chemokines, PGE2 and leukotriene in tracheal-pulmonary lavage; format: in vivo, BALB/c mice

| SMILES | mean survival time [1] | survival [1] | survival of mice infected by influenza A/H2N2 virus (influenza A/H2N2 virus) | survival rate [1] | TCID50 titer in the tracheal-pulmonary lavage [2] | levels of inflammatory markers IL-6, IFN-γ, TNF-α, MIP-1 and leukotriene in tracheal-pulmonary lavage ([3]; compared with triple therapy (P<0.01 or 0.05) or uninfected normal mice) | IL-1 levels in tracheal-pulmonary lavage ([3]; zanamivir alone and controls vs triple therapy, P>0.05) |
| --- | --- | --- | --- | --- | --- | --- | --- |
| Cc1ccc(-c2cc(C(F)(F)F)nn2-c2ccc(S(N)(=O)=O)cc2)cc1 [celecoxib] | about 8.5 days |  |  |  |  |  |  |
| Cc1ccc(C)c(OCCCC(C)(C)C(=O)O)c1 [gemfibrozil] | about 7.5 days | no significant improvement | 52% |  |  |  |  |
| Nc1ccc(O)c(C(=O)O)c1 [mesalazine, 5-aminosalicylic acid] | about 8.5 days |  |  |  |  |  |  |
| CC(=O)N[C@H]1[C@H]([C@H](O)[C@H](O)CO)OC(C(=O)O)=C[C@@H]1N=C(N)N [zanamivir] | 10.7 ± 1.6 days and 8.4 days | All mice survived |  | 13.3% | below our detectable limit | significantly higher | only slightly lower |
